Melting point and Ki data for two molecules are collected here from US9200001B2, “Triazolyl PDE10 inhibitors” (Merck Sharp & Dohme Corp., priority 2011, dated 2015).

One data set addresses human PDE10A2 (Homo sapiens (Human), UniProt Q9Y233). Briefly: PDE10 fluorescence polarization (IMAP FP) inhibition assay. The data set is classed as biochemical. The note with it: FAM-labeled cAMP 50 nM, room temperature, read-out: PDE10a Ki. The essentials:
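Cytoplasmic lysate of AD293 cells transiently expressing human PDE10A2, incubated 30 minutes at room temperature with 50 nM FAM-labeled cAMP in Tris pH 7.2 with MgCl2. Read by IMAP fluorescence polarization; 0% inhibition set by 1% DMSO, 100% by a reference PDE10 inhibitor.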
(Fluorescence polarisation rises when a labelled molecule tumbles more slowly, as on binding a larger partner.)

Chain of human PDE10A2 (Q9Y233 267-1055): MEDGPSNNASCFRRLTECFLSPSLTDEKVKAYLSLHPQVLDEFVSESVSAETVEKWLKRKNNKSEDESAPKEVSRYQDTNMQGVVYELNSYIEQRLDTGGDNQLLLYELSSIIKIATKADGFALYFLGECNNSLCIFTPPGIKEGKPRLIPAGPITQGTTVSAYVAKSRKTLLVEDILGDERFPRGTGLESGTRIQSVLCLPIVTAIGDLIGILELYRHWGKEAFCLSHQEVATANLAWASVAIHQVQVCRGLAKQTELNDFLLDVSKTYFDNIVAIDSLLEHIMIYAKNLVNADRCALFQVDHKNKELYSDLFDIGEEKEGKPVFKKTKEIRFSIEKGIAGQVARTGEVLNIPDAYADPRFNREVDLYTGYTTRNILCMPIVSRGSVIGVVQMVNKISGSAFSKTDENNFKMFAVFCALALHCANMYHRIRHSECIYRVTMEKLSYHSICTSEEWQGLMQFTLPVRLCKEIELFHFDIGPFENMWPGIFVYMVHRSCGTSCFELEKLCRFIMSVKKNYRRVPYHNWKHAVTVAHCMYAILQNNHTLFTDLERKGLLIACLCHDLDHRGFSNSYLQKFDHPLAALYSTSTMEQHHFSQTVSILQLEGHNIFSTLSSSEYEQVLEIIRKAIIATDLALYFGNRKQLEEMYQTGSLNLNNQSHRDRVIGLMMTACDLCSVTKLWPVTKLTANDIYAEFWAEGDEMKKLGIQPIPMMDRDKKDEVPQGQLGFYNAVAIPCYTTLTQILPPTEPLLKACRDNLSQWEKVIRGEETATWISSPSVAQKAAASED

A word on the melting point: it is the temperature, or range, at which the solid turns liquid. By Ki is commonly meant a measure of affinity in units of concentration, obtained from inhibition or displacement. As to `Cc1nc(C)n(-c2cc([C@H]3C[C@@H]3c3nc4ccccc4n3C)nc(OC(C)C)n2)n1` (relative stereo) [Cpd 113, trans-2-{2-[6-(3,5-dimethyl-1H-1,2,4-triazol-1-yl)-2-(1-methylethoxy)pyrimidin-4-yl]cyclopropyl}-1-methyl-1H-benzimidazole], the melting point fell in the range of 133 to 135 °C. In addition, at human PDE10A2, the Ki was found to be 0.62 nM.

For the molecule `Cc1nc(C)n(-c2cc([C@H]3C[C@@H]3c3nc4ccccc4n3C)nc(N(C)C)n2)n1` (relative stereo) [Cpd 114, trans-4-(3,5-dimethyl-1H-1,2,4-triazol-1-yl)-N,N-dimethyl-6-[2-(1-methyl-1H-benzimidazol-2-yl)cyclopropyl]pyrimidin-2-amine], the melting point lay within 164 to 165 °C. Besides, the Ki at human PDE10A2 was found to be 1.2 nM.
